Six compounds from ChEMBL document CHEMBL4043087 (J Med Chem, 2017) can be followed below.

The subject of data set [1] is Canis familiaris. As to the kind of experiment: Anesthetic activity in Beagle dog assessed as anesthetic duration time at 75 mg/kg, administered as bolus dose. Type of data set: functional, Canis lupus familiaris.
In data set [2] the test system is Sus scrofa. Put plainly: Anesthetic activity in mini pig assessed as onset time for loss of righting reflex at 22.5 mg/kg, administered as bolus dose. Type of data set: functional.
Data set [3] can be described thus: Therapeutic index, ratio of LD50 for toxicity in Sprague-Dawley rat to ED50 for anesthetic effect in Sprague-Dawley rat. The note with it: read-out: Ratio LD50/ED50.
Data set [4] in a line: Therapeutic index, ratio of LD50 for toxicity in mouse to ED50 for anesthetic effect in mouse.
The nature of data set [5]: Toxicity in Sprague-Dawley rat. To be noted: in vivo.
For data set [6], the system named is Canis familiaris. Put plainly: Anesthetic activity in Beagle dog assessed as recovery time at 75 mg/kg, administered as bolus dose. Type of data set: functional, Canis lupus familiaris.
The test system of data set [7] is Mus musculus. As to the kind of experiment: Anesthetic activity in mouse model assessed as loss of righting reflex. The class given is functional.
The nature of data set [8]: Toxicity in mouse. Type of data set: organism-based. The note with it: in vivo.
Data set [9] has as its system Canis familiaris. Put plainly: Anesthetic activity in Beagle dog assessed as onset time for loss of righting reflex at 75 mg/kg, administered as bolus dose. Type of data set: functional, Canis lupus familiaris.
In data set [10] the test system is Sus scrofa. Put plainly: Anesthetic activity in mini pig assessed as anesthetic duration time at 22.5 mg/kg, administered as bolus dose. The class given is functional.
The subject of data set [11] is Rattus norvegicus. Put plainly: Anesthetic activity in Sprague-Dawley rat assessed as loss of righting reflex. The class given is functional.
Data set [12] relates to Sus scrofa. Put plainly: Anesthetic activity in mini pig assessed as recovery time at 22.5 mg/kg, administered as bolus dose. Type of data set: functional.
The nature of data set [13]: Volume of distribution at steady state in Sprague-Dawley rat at 1 mg/kg, iv by LC-MS/MS analysis. Type of data set: ADME, organism-based. The note with it: in vivo, read-out: Vdss.
Data set [14] concerns Mus musculus. As to the kind of experiment: Anesthetic activity in iv dosed ICR mouse assessed as anesthetic duration time administered 7 to 8 doses at 10 secs for each dose. Type of data set: functional.
Data set [15] concerns Mus musculus. Put plainly: Anesthetic activity in iv dosed ICR mouse assessed as onset time for loss of righting reflex administered 7 to 8 doses at 10 secs for each dose. Type of data set: functional.
In data set [16] the test system is Rattus norvegicus. As to the kind of experiment: Cmax in Sprague-Dawley rat at 1 mg/kg, iv by LC-MS/MS analysis. The class given is ADME, organism-based. Also noted: dose 1 mg/kg, route intravenous. The note with it: in vivo.
The species named for data set [17] is Rattus norvegicus. As to the kind of experiment: Displacement of [35S]TBPS from GABAA receptor in Wistar rat cerebral cortex membranes after 3 hrs by scintillation counting method. The note with it: Membrane. On the technique in general: Displacement assays read how much labelled ligand stays bound in the presence of the test substance.
Data set [18] concerns Mus musculus. Put plainly: Anesthetic activity in iv dosed ICR mouse assessed as dose required to produce 10 min of anesthesia administered 7 to 8 doses at 10 secs for each dose. The class given is functional.
Data set [19] has as its system Mus musculus. As to the kind of experiment: Anesthetic activity in iv dosed ICR mouse assessed as recovery time of righting reflex by measuring the ability to grip and climb a steel frame and ambulated normally administered 7 to 8 doses at 10 secs for each dose. The class given is functional.
Data set [20] is filed under the species Rattus norvegicus. As to the kind of experiment: Displacement of [35S]TBPS from GABAA receptor in Wistar rat cerebral cortex membranes at 1 uM after 3 hrs by scintillation counting method. The note with it: Membrane.
Data set [21] is filed under the species Rattus norvegicus. The note with it: in vivo, iv, 1 mg/kg.
For data set [22], the species on record is Rattus norvegicus. As to the kind of experiment: Displacement of [35S]TBPS from GABAA receptor in Wistar rat cerebral cortex membranes at 10 uM after 3 hrs by scintillation counting method. The note with it: Membrane.
Data set [23] is described as follows: Clearance in Sprague-Dawley rat at 1 mg/kg, iv by LC-MS/MS analysis. The class given is ADME, organism-based. The note with it: in vivo.
Data set [24] concerns Rattus norvegicus. Put plainly: Half life in Sprague-Dawley rat at 1 mg/kg, iv by LC-MS/MS analysis. The class given is ADME, organism-based. To be noted: in vivo.
Data set [25] relates to Canis familiaris. Put plainly: Anesthetic activity in Beagle dog assessed as recovery time at 12.5 mg/kg, administered as bolus dose. Type of data set: functional, Canis lupus familiaris.
In data set [26] the test system is Canis familiaris. Put plainly: Anesthetic activity in Beagle dog assessed as anesthetic duration time at 12.5 mg/kg, administered as bolus dose. The class given is functional, Canis lupus familiaris.
The subject of data set [27] is Sus scrofa. As to the kind of experiment: Anesthetic activity in mini pig assessed as recovery time at 4 mg/kg, administered as bolus dose. Type of data set: functional.
The subject of data set [28] is Canis familiaris. Put plainly: Anesthetic activity in Beagle dog assessed as onset time for loss of righting reflex at 12.5 mg/kg, administered as bolus dose. Type of data set: functional, Canis lupus familiaris.
Data set [29] deals with Sus scrofa. As to the kind of experiment: Anesthetic activity in mini pig assessed as onset time for loss of righting reflex at 4 mg/kg, administered as bolus dose. The class given is functional.
Data set [30] deals with Sus scrofa. Put plainly: Anesthetic activity in mini pig assessed as anesthetic duration time at 4 mg/kg, administered as bolus dose. Type of data set: functional.
Data set [31] has as its system Canis familiaris. Put plainly: Anesthetic activity in Beagle dog assessed as anesthetic duration time at 25 mg/kg, administered as bolus dose. The class given is functional, Canis lupus familiaris.
Data set [32] deals with Sus scrofa. As to the kind of experiment: Anesthetic activity in mini pig assessed as anesthetic duration time at 5 mg/kg, administered as bolus dose. Type of data set: functional.
Data set [33] deals with Canis familiaris. Put plainly: Anesthetic activity in Beagle dog assessed as onset time for loss of righting reflex at 25 mg/kg, administered as bolus dose. The class given is functional, Canis lupus familiaris.
Data set [34] concerns Sus scrofa. As to the kind of experiment: Anesthetic activity in mini pig assessed as onset time for loss of righting reflex at 5 mg/kg, administered as bolus dose. Type of data set: functional.
The test system of data set [35] is Canis familiaris. Put plainly: Anesthetic activity in Beagle dog assessed as recovery time at 25 mg/kg, administered as bolus dose. Type of data set: functional, Canis lupus familiaris.
Data set [36] has as its system Sus scrofa. As to the kind of experiment: Anesthetic activity in mini pig assessed as recovery time at 5 mg/kg, administered as bolus dose. Type of data set: functional.
The subject of data set [37] is Mus musculus. Put plainly: Anesthetic activity in iv dosed ICR mouse assessed as loss of righting reflex administered 7 to 8 doses at 10 secs for each dose. The class given is functional.
Data set [38] in a line: Toxicity in iv dosed ICR mouse administered 7 to 8 doses at 10 secs for each dose. The class given is organism-based. The note with it: in vivo.

Usually LD50 stands for the dose at which mortality reaches 50%. Low values mean greater toxicity, high ones lower toxicity. A word on the ED50: it is the dose at which the effect has come halfway, by size or by number of responders. `CC(C)c1cccc(C(C)C)c1OCOP(=O)([O-])[O-].[Na+].[Na+]` [FOSPROPOFOL DISODIUM]: the Time in the data set with Canis familiaris [1] came out at 80.4 min; with Sus scrofa [2], 1.6 min; with Canis familiaris [6] it was 7.3 min; with Canis familiaris [9], 2.1 min; in the data set on Sus scrofa [10], 72.6 min; with Sus scrofa [12] it was 6 min. Moreover, the selectivity ratio in data set [3] was determined as 4.61. In data set [4], the “Ratio LD50/ED50” value turned out to be 2.3. The LD50 in data set [5] amounted to 189 mg/kg; in [8] it was 220 mg/kg. The ED50 in the data set with Mus musculus [7] worked out at 95 mg/kg; in the data set with Rattus norvegicus [11], 41 mg/kg.
The Cmax is the maximum level reached in the sampled fluid or tissue. The inhibition is how much of the control response was suppressed. As usually defined, the clearance is the rate of elimination divided by the concentration. A high value points to a high capacity for elimination. On to `C[C@@H](c1cccc([C@H](C)C2CC2)c1O)C1CC1`, for which, in [13], the Vd was 1.92 L/kg. Further, the Time with Mus musculus [14] is 318.43 s; with Mus musculus [15] it was below 10 s; in the data set on Mus musculus [19] it was 61.67 s. This compound also returned a Cmax in the data set with Rattus norvegicus [16] of 713 ng/mL. Also, the inhibition result in the data set filed under Rattus norvegicus [17] was “Dose-dependent effect”; in the data set listed under Rattus norvegicus [20] it was 64%; in the data set filed under Rattus norvegicus [22], 96%. Also, the Activity in the data set with Mus musculus [18] came out at 5 mg/kg. The same compound showed an AUCt in the data set filed under Rattus norvegicus [21] of 170 ng·h/mL. In data set [23], this compound had a clearance of 95 mL/min/kg. This compound yielded a t1/2 with Rattus norvegicus [24] of 31 min.
As to `C[C@@H](c1cccc([C@H](C)C2CC2)c1OCOP(=O)([O-])[O-])C1CC1.[Na+].[Na+]`, the Time in the data set on Canis familiaris [25] is listed as 3.3 min; with Canis familiaris [26], 70.2 min; in the data set with Sus scrofa [27], 9.6 min; in the data set on Canis familiaris [28], 0.9 min; with Sus scrofa [29] it was 3 min; in the data set on Sus scrofa [30], 65.8 min. In addition, the selectivity ratio in data set [3] came out at 5.51. The “Ratio LD50/ED50” value in [4] amounted to 3.6. Also, the LD50 in data set [5] worked out at 40.4 mg/kg; in [8] it was 42.5 mg/kg. In addition, the ED50 is 11.7 mg/kg in the data set with Mus musculus [7] and 7.34 mg/kg in the data set on Rattus norvegicus [11].
Consider `CC(C)c1cccc([C@H](C)C2CC2)c1OCOP(=O)([O-])[O-].[Na+].[Na+]`, for which the Time is 72.2 min with Canis familiaris [31]; 68.2 min with Sus scrofa [32]; 0.7 min in the data set with Canis familiaris [33]; 1.6 min in the data set on Sus scrofa [34]; 11.2 min with Canis familiaris [35]; 4.8 min with Sus scrofa [36]. In data set [3], the selectivity ratio is 4.74. For the same compound, in data set [4], the “Ratio LD50/ED50” value came out at 4.2. Further, the values for the ED50 with Mus musculus [7] and in the data set on Rattus norvegicus [11] were 20.4 mg/kg and 12.9 mg/kg, respectively. Further, the LD50 in data set [8] was 86.5 mg/kg.
On to `CC[C@@H](C)c1cccc([C@H](C)C2CC2)c1O`, for which the Vd in [13] is 3.23 L/kg. The Time in the data set on Mus musculus [14] is 471.88 s; in the data set with Mus musculus [15], below 10 s; with Mus musculus [19] it was 391.29 s. The compound also registered a Cmax in the data set on Rattus norvegicus [16] of 575 ng/mL. Besides, the inhibition result is “Dose-dependent effect” in the data set listed under Rattus norvegicus [17], 23% in the data set listed under Rattus norvegicus [20] and 87% in the data set listed under Rattus norvegicus [22]. For the same compound, the Activity in the data set on Mus musculus [18] was 7.5 mg/kg. Moreover, in the data set on Mus musculus [37], the ED50 stood at 2 mg/kg. This compound returned an LD50 at 10 s in data set [38] of 14.3 mg/kg. This compound displayed an AUCt in the data set listed under Rattus norvegicus [21] of 78.1 ng·h/mL. In data set [23], this compound came in with a clearance of 208 mL/min/kg. Also, in the data set with Rattus norvegicus [24], the t1/2 is 22 min.
`CC(C)c1cccc([C@H](C)C2CC2)c1O` [CIPEPOFOL]: the Vd in [13] worked out at 2.02 L/kg. In addition, the Time with Mus musculus [14] was found to be 313.43 s; in the data set on Mus musculus [15], 21.86 s; in the data set with Mus musculus [19] it was 64.8 s. This compound came in with a Cmax in the data set on Rattus norvegicus [16] of 834 ng/mL. For the same compound, the inhibition result is “Dose-dependent effect” in the data set filed under Rattus norvegicus [17], 34% in the data set listed under Rattus norvegicus [20] and 85% in the data set filed under Rattus norvegicus [22]. For the same compound, the Activity with Mus musculus [18] turned out to be 4.8 mg/kg. Further, the AUCt in the data set filed under Rattus norvegicus [21] came to 164 ng·h/mL. The clearance in data set [23] is 100 mL/min/kg. In the data set on Rattus norvegicus [24], the t1/2 was 28 min.
